Results from patent US11844801B2, “Oral compositions of MK2 pathway inhibitor for treatment of immune conditions” (priority 2020, dated 2023).

Legend:
[1] = Phase 2a RA study: Hand-Wrist MRI RAMRIS and CARLOS; format: in vivo, human; settings: for Carlos Cartilage Loss, mean / RAMRIS Erosion Score, mean / RAMRIS Osteitis Score, mean / RAMRIS Synovitis Score, mean / Carlos Cartilage Loss, change from baseline, mean / RAMRIS Erosion Score, change from baseline, mean / RAMRIS Osteitis Score, change from baseline, mean / RAMRIS Synovitis Score, change from baseline, mean: n = 15
[2] = Phase 2a RA study: safety (adverse events)
Procedure: Patient eligibility was assessed based on the following criteria: (i) a diagnosis of adult onset RA (ACR/EULAR classification criteria); (ii) DAS28-CRP≥3.2 defined as moderate to high disease activity; (iii) moderately to severely active RA defined by at least 4/28 tender and 4/28 swollen joints; (iv) hsCRP≥5 mg/L at screening; (v) definitive intra-articular synovitis or osteitis defined as a score of 1 or greater on a Hand-Wrist MM (using RAMRIS); (vi) stable MTX dose (defined as 7.5 mg to 25 mg weekly) for at least 4 weeks prior to the screening visit. […] Study medications were administered orally for 12 weeks. Patients were required to remain on a stable dose of MTX (7.5 mg to 25 mg/week) and a stable dose of folic or folinic acid (≥5 mg/week) for the duration of the study.
Patients attended clinic visits on Days 7, 14, 28, 42, 56, and 84 (±1 day) for safety, efficacy, PK, and PD assessments. The morning dose of study medication was administered in the clinic on each study visit day.
At the completion of 4 weeks of treatment (Day 28), each patient's safety data (e.g., AEs, laboratory values, vital signs, and ECGs) will be reviewed to ensure that the patient is tolerating the treatment regimen and is deemed suitable to continue treatment for the next 8 weeks.

TNF-α [3] = experiment: LPS stimulated TNF-α production in human whole blood; format: cell-based
Procedure: Compounds were serially diluted in 100% DMSO (Sigma-Aldrich, D2650) followed by a 50× dilution into DMEM/10% FBS (Gibco, 11965/26140). Vehicle consisted of DMSO at a final assay concentration of 0.1%. Pin tools (V&P Scientific, Inc., VP246) were placed in the wells and the plate was placed at 37° C. with 5% CO2, with gently shaking for five minutes, then pin tools were removed and saved. […] Pin tools were placed in the wells in the same orientation as the previous step and gently shook for five minutes at 37° C. with 5% CO2, then removed. […] The plasma was harvested and assayed for TNF-α, IL-1β, and IL-6 using Meso Scale Discovery Technology V-plex human cytokine kits according to the kit protocol. The kit plates were read using an MSD Sector S 6000 instrument. Calculations to establish cytokine calibration curves and to determine analyte concentrations in the samples were carried out using the MSD DISCOVERY WORKBENCH® analysis software.

TNF-α [4] = experiment: Mouse neutrophil (mPMN) IL-1α stimulated TNF-α; format: cell-based
Procedure: Biosynthesis of […] was quantified using MSD technology. […] Cells and compound were stimulated with mouse IL-1α to a final concentration of 10 ng/mL and incubated for 4 hours at 37° C. Supernatants were collected and TNF-α levels quantitated using MSD technology.

TNF-α [5] = experiment: Porcine whole blood LPS stimulated TNF-α assay; format: cell-based; settings: Sus scrofa, Pig Whole Blood, 10 µg/mL, 4 hr
Procedure: Porcine LPS stimulated TNF-α Assay—Porcine whole blood was collected into heparinized vacutainers then transferred into conical tubes and shipped overnight on wet ice. Porcine whole blood was aliquoted (160 μL/well) into round bottom 96 well tissue culture plates. Compounds were serially diluted in 100% DMSO (Sigma-Aldrich, D2650) followed by a 100× dilution into RPMI/10% FBS (Gibco, 11875/26140). The diluted compounds were then added to each plate in duplicate 20 μL aliquots for final concentrations ranging from 10 μM to 1 pM. DMSO final concentration was 0.1%. After a one-hour incubation at 37° C. with 5% CO2, 20 μL of LPS (Sigma-Aldrich, L2630), in RPMI/10% FBS (Gibco, 11875/26140) was added for a final concentration of 10 μg/mL to each well except for the no stimulus wells. After four hours of incubation with LPS, plasma was harvested by centrifugation at 1,800×g for five minutes. The plasmas were assayed for TNF-α levels using a porcine specific TNF-α Quantikine ELISA kit (R&D, PTA00) according to the kit protocol.

IL-17A = IL-17A production in CD4+ cells cultured under TH17 skewing conditions; format: cell-based, human
Procedure: CD4+ cells were cultured for 3 days under TH17 skewing conditions (anti-CD3, anti-CD28, anti-IL-4, anti-IFNγ, rIL-6, rIL-23, rTGFβ). On day 3, cells were harvested, washed, re-plated, and treated with compound or DMSO only. […] After 18-20 hours, supernatants were collected and assayed for IL-17A levels using MSD.

[6] = most severe hand, baseline, 50 mg BID arm
[7] = most severe hand, week 12, 50 mg BID
[8] = other hand, baseline, 50 mg BID arm

Cc1cnc(-c2ccnc(C(C)(C)O)n2)cc1-n1c(C)cc(OCc2ncc(F)cc2F)c(Cl)c1=O (single isomer, unassigned) [ATI-450, 3-chloro-4-((3,5-difluoropyridin-2-yl)methoxy)-2′-(2-(2-hydroxypropan-2-yl)pyrimidin-4-yl)-5′,6-dimethyl-2H-[1,4′-bipyridin]-2-one]
joint destruction and synovitis by MRI ([1]; 50 mg BID plus MTX, 12 weeks): prevents the progression of joint destruction and provides significant improvement in synovitis
Carlos Cartilage Loss, mean [1, 6]: 7.6
RAMRIS Erosion Score, mean [1, 6]: 13.27
RAMRIS Osteitis Score, mean [1, 6]: 2.93
RAMRIS Synovitis Score, mean [1, 6]: 6.1
Carlos Cartilage Loss, change from baseline, mean [1, 7]: 0.03
Carlos Cartilage Loss, mean [1, 7]: 7.63
RAMRIS Erosion Score, change from baseline, mean [1, 7]: 0.63
RAMRIS Erosion Score, mean [1, 7]: 13.9
RAMRIS Osteitis Score, change from baseline, mean [1, 7]: 0.9
RAMRIS Osteitis Score, mean [1, 7]: 3.83
RAMRIS Synovitis Score, change from baseline, mean [1, 7]: −0.17
RAMRIS Synovitis Score, mean [1, 7]: 5.93
Carlos Cartilage Loss, mean [1, 8]: 7.45
RAMRIS Erosion Score, mean [1, 8]: 13.3
RAMRIS Osteitis Score, mean [1, 8]: 2.4
RAMRIS Synovitis Score, mean [1, 8]: 4.07
Carlos Cartilage Loss, change from baseline, mean ([1]; other hand, week 12, 50 mg BID): 0
Carlos Cartilage Loss, mean ([1]; other hand, week 12, 50 mg BID): 7.45
RAMRIS Erosion Score, change from baseline, mean ([1]; other hand, week 12, 50 mg BID): −0.27
RAMRIS Erosion Score, mean ([1]; other hand, week 12, 50 mg BID): 13.03
RAMRIS Osteitis Score, change from baseline, mean ([1]; other hand, week 12, 50 mg BID): 1
RAMRIS Osteitis Score, mean ([1]; other hand, week 12, 50 mg BID): 3.4
RAMRIS Synovitis Score, change from baseline, mean ([1]; other hand, week 12, 50 mg BID): 0.33
RAMRIS Synovitis Score, mean ([1]; other hand, week 12, 50 mg BID): 4.4
tolerability ([2]; 50 mg BID plus MTX, 12 weeks): very well tolerated, with no serious or severe adverse events reported
Abnormal ECG, Mild, n (%) ([2]; 50 mg BID, RA patients, n = 16): 1 (6.25)
Abnormal ECG, Moderate, n (%) ([2]; 50 mg BID, RA patients, n = 16): 0
Blood cholesterol increased, Mild, n (%) ([2]; 50 mg BID, RA patients, n = 16): 1 (6.25)
Blood cholesterol increased, Moderate, n (%) ([2]; 50 mg BID, RA patients, n = 16): 0
Blood creatine phosphokinase increased, Mild, n (%) ([2]; 50 mg BID, RA patients, n = 16): 0
Blood creatine phosphokinase increased, Moderate, n (%) ([2]; 50 mg BID, RA patients, n = 16): 1 (6.25)
Constipation, Mild, n (%) ([2]; 50 mg BID, RA patients, n = 16): 1 (6.25)
Constipation, Moderate, n (%) ([2]; 50 mg BID, RA patients, n = 16): 0
Ear infection, Mild, n (%) ([2]; 50 mg BID, RA patients, n = 16): 1 (6.25)
Ear infection, Moderate, n (%) ([2]; 50 mg BID, RA patients, n = 16): 0
Essential hypertension, Mild, n (%) ([2]; 50 mg BID, RA patients, n = 16): 0
Essential hypertension, Moderate, n (%) ([2]; 50 mg BID, RA patients, n = 16): 1 (6.25)
Hyperliidaemia, Mild, n (%) ([2]; 50 mg BID, RA patients, n = 16): 0
Hyperliidaemia, Moderate, n (%) ([2]; 50 mg BID, RA patients, n = 16): 1 (6.25)
Hypokalaemia, Mild, n (%) ([2]; 50 mg BID, RA patients, n = 16): 0
Hypokalaemia, Moderate, n (%) ([2]; 50 mg BID, RA patients, n = 16): 1 (6.25)
Ligament sprain, Mild, n (%) ([2]; 50 mg BID, RA patients, n = 16): 1 (6.25)
Ligament sprain, Moderate, n (%) ([2]; 50 mg BID, RA patients, n = 16): 0
Low density lipoprotein increased, Mild, n (%) ([2]; 50 mg BID, RA patients, n = 16): 1 (6.25)
Low density lipoprotein increased, Moderate, n (%) ([2]; 50 mg BID, RA patients, n = 16): 0
Mouth ulceration, Mild, n (%) ([2]; 50 mg BID, RA patients, n = 16): 1 (6.25)
Mouth ulceration, Moderate, n (%) ([2]; 50 mg BID, RA patients, n = 16): 0
Palpitations, Mild, n (%) ([2]; 50 mg BID, RA patients, n = 16): 1 (6.25)
Palpitations, Moderate, n (%) ([2]; 50 mg BID, RA patients, n = 16): 0
Rash erythematous, Mild, n (%) ([2]; 50 mg BID, RA patients, n = 16): 1 (6.25)
Rash erythematous, Moderate, n (%) ([2]; 50 mg BID, RA patients, n = 16): 0
Sinusitis, Mild, n (%) ([2]; 50 mg BID, RA patients, n = 16): 0
Sinusitis, Moderate, n (%) ([2]; 50 mg BID, RA patients, n = 16): 1 (6.25)
Skin abrasion, Mild, n (%) ([2]; 50 mg BID, RA patients, n = 16): 1 (6.25)
Skin abrasion, Moderate, n (%) ([2]; 50 mg BID, RA patients, n = 16): 0
Urinary tract infection, Mild, n (%) ([2]; 50 mg BID, RA patients, n = 16): 0
Urinary tract infection, Moderate, n (%) ([2]; 50 mg BID, RA patients, n = 16): 2 (12.5)
Ventricular extrasystoles, Mild, n (%) ([2]; 50 mg BID, RA patients, n = 16): 1 (6.25)
Ventricular extrasystoles, Moderate, n (%) ([2]; 50 mg BID, RA patients, n = 16): 0
White blood cell count increased, Mild, n (%) ([2]; 50 mg BID, RA patients, n = 16): 1 (6.25)
White blood cell count increased, Moderate, n (%) ([2]; 50 mg BID, RA patients, n = 16): 0
IC50 (TNF-α [3]; Human Whole Blood, LPS, 100 ng/mL, 4 or 24 hr, read-out: IC50, TNF-α): 29 ± 9 nM
IC50 (TNF-α [3]; human whole blood, LPS 100 ng/mL, read-out: IC50, LPS-stimulated TNF-α): 10 to 100 nM
IC50 (TNF-α [4]; Mus musculus, Neutrophil, mPMN, IL-1α, 10 ng/mL, 4 hr): 5 nM
IL-1α mediated TNF-α signaling in neutrophils (TNF-α [4]; mouse IL-1α 10 ng/mL, 4 hours): dose dependently inhibits
IC50 (TNF-α [5]): 7.4 nM
IL-17 production in CD4+ cells (IL-17A): partially inhibits
